Data taken from patent US10828301B2, “2,4-pyrimidinediamine compounds and their uses” (Rigel Pharmaceuticals, Inc, priority 2002, dated 2020).
Where a name gives a salt, the structure may show the parent alone. Read-outs that look alike come from different tables or passages of the source.

Experiments:
Assay type in all cases: cell-based
[1] = test system: cultured human mast cells (CHMC); test: CHMC low cell density IgE activation: tryptase and LTC4 assays; conditions: Homo sapiens, Mast cell, Low Density CHMC, anti-IgE activation
Summary of the method: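 Cultured human mast cells at low density (1000-1500 per well) rested 1 h at 37° C, then stimulated with anti-IgE for 30 min at 37° C. Supernatant tryptase measured with fluorogenic substrate (30 min, room temperature); LTC4 quantified by ELISA on diluted supernatant.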

[2] = test system: ionophore-induced degranulation of mast and/or basophil cells; test: Ionophore (ionomycin or A23187)-induced degranulation counter screen; conditions: high density BMMC, ionomycin activation, hexosaminidase release, read-out: BMMC Ionomycin Hexos. IC50
Source text: In addition to the FcεRI or FcγRI degranulation pathways discussed above, degranulation of mast and/or basophil cells can be induced by other agents. For example, ionomycin, a calcium ionophore that bypasses the early FcεRI or FcγRI signal transduction machinery of the cell, directly induces a calcium flux that triggers degranulation. Referring again to FIG. 2, activated PLCγ initiates pathways that lead to, among other things, calcium ion mobilization and subsequent degranulation. As illustrated, this Ca^2+ mobilization is triggered late in the FcεRI signal transduction pathway. […] Other ionophores that induce degranulation in this manner include A23187. The ability of granulation-inducing ionophores such as ionomycin to bypass the early stages of the FcεRI and/or FcγRI signaling cascades may be used as a counter screen to identify active compounds of the invention that specifically exert their degranulation-inhibitory activity by blocking or inhibiting the early FcεRI or FcγRI signaling cascades, as discussed above.
Assays suitable for determining the IC50 of ionophore-induced degranulation include any of the previously-described degranulation assays, with the modification that the cells are stimulated or activated with a degranulation-inducing calcium ionophore such as ionomycin or A23187 (A.G. Scientific, San Diego, Calif.) instead of anti-IgE antibodies or an IgE-specific allergen. Specific assays for assessing the ability of a particular 2,4-pyrimidinediamine compound of the invention to inhibit ionophore-induced degranulation are provided in the Examples section.

[3] = test system: bone marrow derived mast cells (BMMC); test: BMMC high cell density IgE activation: degranulation (hexosiminidase, histamine), leukotriene (LTC4) and cytokine (TNFalpha, IL-6) assays; conditions: Mus musculus, anti-IgE activation
Experimental: After sensitizing, cells are counted, pelleted (1000 rpm, 5-10 minutes), and resuspended at 1-3×10^6 cells/ml in MT buffer. Add 100 ul of cell suspension to each well and 100 ul of compound dilutions. The final vehicle concentration is 0.5% DMSO. Incubate at 37° C. (5% CO2) for 1 hour. After 1 hour of compound treatment, stimulate cells with 6× stimulus (60 ng/ml DNP-BSA). Mix wells with the cells and allow plates to incubate at 37° C. (5% CO2) for one hour. After 1 hour incubation, pellet cells (10 minutes, 1000 RPM) and collect 200 ul per well of the supernatant, being careful not to disturb pellet, and transfer to a clean tube or 96-well plate. Place the supernatant plate on ice. During the 4-5 hour step (see next) perform the hexosiminidase assay. Resuspend cell pellet in 240 ul WEI-conditioned media containing 0.5% DMSO and corresponding concentration of compound. Incubate BMMC cells for 4-5 hours at 37° C. (5% CO2). After incubation, pellet cells (1000 RPM, 10 minutes) and collect 225 ul per well and place in −80° C. until ready to perform ELISAS. ELISAS are performed on appropriately diluted samples (determined empirically for each donor cell population so that the sample measurement falls within the standard curve) following the supplier's instructions.
Add 50 uL of BMMC cell supernatant (see above) to the hexoseaminidase substrate, place at 37° C. for 30 minutes and read the plate at 5, 10, 15, and 30 minutes on a spectrophotometer.

[4] = test system: cultured human mast cells (CHMC); test: CHMC low cell density ionomycin activation: tryptase assay; conditions: Homo sapiens, Mast cell, Low Density CHMC, ionomycin activation
[5] = test system: basophils in whole human peripheral blood; test: Basophil ionomycin activation: histamine release assay
Experimental: Assays for ionomycin-induced basophil cell degranulation were carried out as described for the Basophil IgE or Dustmite Activation Assay (Section 6.4.6, supra), with the exception that following incubation with compound, cells were stimulated with 20 μl of 2 μM ionomycin.

[6] = hexosaminidase readout, read-out: CHMC anti-IgE Hexos.
[7] = hexosaminidase release, read-out: BMMC anti-IgE hexos IC50
[8] = hexosaminidase readout, read-out: CHMC Ionomycin Hexos.
[9] = tryptase readout, read-out: CHMC anti-IgE Tryptase
[10] = tryptase readout, read-out: CHMC Ionomycin Tryptase
[11] = IL-6 release, read-out: BMMC anti-IgE IL-6 IC50
[12] = LTC4 release, read-out: BMMC anti-IgE LTC4 IC50
[13] = TNF-alpha release, read-out: BMMC anti-IgE TNF-alpha IC50
[14] = histamine release, read-out: BMMC anti-IgE histamine IC50

| SMILES | IC50 [1, 6] [µM] | IC50 ([2]; Mus musculus) [µM] | IC50 [3, 7] [nM] | also measured |
| --- | --- | --- | --- | --- |
| CCOc1cccc(Nc2ncc(F)c(Nc3cccc(OCC)c3)n2)c1 [Compound R926064, N2,N4-Bis(3-ethoxyphenyl)-5-fluoro-2,4-pyrimidinediamine] | 6.2 | 7.3 | 5900 | – |
| COc1cccc(Nc2ncc(F)c(Nc3cccc(OC)c3)n2)c1 [Compound R926065, N2,N4-Bis(3-methoxyphenyl)-5-fluoro-2,4-pyrimidinediamine] | 3.5 | > 10 | > 10000 | – |
| CCOc1ccc(Nc2ncc(C)c(Nc3ccc(OCC)cc3)n2)cc1 [Compound R926068, N2,N4-Bis(4-ethoxyphenyl)-5-methyl-2,4-pyrimidinediamine] | > 10 | 8.2 | 7400 | – |
| CCOc1ccc(Nc2ccnc(Nc3ccc(OCC)cc3)n2)cc1 [Compound R926069, N2,N4-Bis(4-ethoxyphenyl)-2,4-pyrimidinediamine] | 9.1 | 4.4 | 4500 | – |
| CCOc1ccc(Nc2cc(Cl)nc(Nc3ccc(OCC)cc3)n2)cc1 [Compound R926072, N2,N4-Bis(4-ethoxyphenyl)-6-chloro-2,4-pyrimidinediamine] | > 10 | > 10 | > 10000 | – |
| Fc1cnc(Nc2ccc(N3CCOCC3)cc2)nc1Nc1ccc(N2CCOCC2)cc1 [Compound R926114, N2,N4-Bis[4-(N-morpholino)phenyl]-5-fluoro-2,4-pyrimidinediamine] | – | – | – | IC50 [2]: > 10 µM |
| CCOc1ccc(Nc2ncc(F)c(Nc3ccc(OC)c(OC)c3)n2)cc1 [Compound R926145, N4-(3,4-Dimethoxyphenyl)-N2-(4-ethoxyphenyl)-5-fluoro-2,4-pyrimidinediamine] | 4.76 | 8.8 | 2400 | IC50 [4, 8]: > 10 µM |
| COc1ccc(Nc2nc(Nc3cccc(O)c3)ncc2F)cc1OC [Compound R926147, N4-(3,4-Dimethoxyphenyl)-5-fluoro-N2-(3-hydroxyphenyl)-2,4-pyrimidinediamine] | 1.9 | 7.1 | 2000 | IC50 [4, 8]: > 10 µM |
| Fc1ccc(Nc2ncc(F)c(Nc3ccc4c(c3)OCCO4)n2)cc1Cl [Compound R926218, N2-(3-Chloro-4-fluorophenyl)-N4-(3,4-ethylenedioxyphenyl)-5-fluoro-2,4-pyrimidinediamine] | > 10 | > 10 | > 10000 | – |
| CC(C)(C)c1ccc(Nc2ncc(F)c(Nc3ccc4c(c3)OCCO4)n2)cc1 [Compound R926219, N2-(4-tert-Butylphenyl)-N4-(3,4-ethylenedioxyphenyl)-5-fluoro-2,4-pyrimidinediamine] | 1.1 | 3.2 | 2500 | IC50 [4, 8]: 6.7 µM |
| Fc1ccc(Nc2ncc(F)c(Nc3ccc4c(c3)OCCO4)n2)cc1 [Compound R926220, N4-(3,4-Ethylenedioxyphenyl)-N2-(4-fluorophenyl)-5-fluoro-2,4-pyrimidinediamine] | > 10 | > 10 | > 10000 | – |
| Fc1cccc(Nc2ncc(F)c(Nc3ccc4c(c3)OCCO4)n2)c1 [Compound R926221, N4-(3,4-Ethylenedioxyphenyl)-N2-(3-fluorophenyl)-5-fluoro-2,4-pyrimidinediamine] | 8.5 | > 10 | 9900 | – |
| CC(C)(C)c1ccc(Nc2ncc(F)c(Nc3ccc(C(C)(C)C)cc3)n2)cc1 [Compound R926222, N2,N4-Bis(4-tert-butylphenyl)-5-fluoro-2,4-pyrimidinediamine] | > 10 | > 10 | > 10000 | – |
| Fc1ccc(Nc2ncc(F)c(Nc3ccc(F)c(Cl)c3)n2)cc1Cl [Compound R926223, N2,N4-Bis(3-chloro-4-fluorophenyl)-5-fluoro-2,4-pyrimidinediamine] | > 10 | > 10 | > 10000 | – |
| Fc1ccc(Nc2ncc(F)c(Nc3ccc(F)cc3)n2)cc1 [Compound R926224, N2,N4-Bis(4-fluorophenyl)-5-fluoro-2,4-pyrimidinediamine] | > 10 | > 10 | > 10000 | – |
| Cc1ccc(Nc2ncc(F)c(Nc3ccc(C)cc3)n2)cc1 [Compound R926225, N2,N4-Bis(4-methylphenyl)-5-fluoro-2,4-pyrimidinediamine] | > 10 | > 10 | > 10000 | – |
| O=C(NCCO)c1cc2cc(Nc3ncc(F)c(Nc4ccc5c(c4)OCCO5)n3)ccc2o1 [Compound R926498, N4-(3,4-Ethylenedioxyphenyl)-5-fluoro-N2-[2-(N-2-hydroxyethylamino)carbonylbenzofuran-5-yl]-2,4-pyrimidinediamine] | – | – | < 220 | IC50 [1, 9]: 0.209 µM; IC50 [4, 10]: > 10 µM; IC50 [3, 11]: < 220 nM; IC50 [3, 12]: 995 nM; IC50 [3, 13]: 614 nM; IC50 [3, 14]: 515 nM |
| O=C(c1cc2cc(Nc3ncc(F)c(Nc4ccc5c(c4)OCCO5)n3)ccc2o1)N1CCNCC1 [Compound R926501, N4-(3,4-Ethylenedioxyphenyl)-5-fluoro-N2-[2-(N-piperazino)carbonylbenzofuran-5-yl]-2,4-pyrimidinediamine Hydrogen Chloride Salt] | – | – | – | IC50 [5]: > 10 µM |
| O=C(c1cc2cc(Nc3ncc(F)c(Nc4cccc(O)c4)n3)ccc2o1)N1CCNCC1 [Compound R926502, 5-Fluoro-N4-(3-hydroxyphenyl)-N2-[2-(N-piperazino)carbonylbenzofuran-5-yl]-2,4-pyrimidinediamine Hydrogen Chloride Salt] | – | – | – | IC50 [5]: > 10 µM |
| OCc1cc2cc(Nc3ncc(F)c(Nc4cccc(O)c4)n3)ccc2o1 [Compound R926707, 5-Fluoro-N2-[2-(hydroxymethyl)benzofuran-5-yl]-N4-(3-hydroxyphenyl)-2,4-pyrimidinediamine] | – | – | < 56 | IC50 [1, 9]: 0.214 µM; IC50 [4, 10]: > 10 µM; IC50 [3, 11]: < 56 nM; IC50 [3, 12]: 390 nM; IC50 [3, 13]: 88 nM; IC50 [3, 14]: < 56 nM |
| CC(C)Oc1ccc(Nc2nc(Nc3ccc(OCCO)cc3)ncc2F)cc1 [Compound R935160, 5-Fluoro-N2-[4-(2-hydroxyethoxy)phenyl]-N4-(4-isopropoxyphenyl)-2,4-pyrimidinediamine] | – | – | < 220 | IC50 [1, 9]: 0.202 µM; IC50 [4, 10]: > 10 µM; IC50 [3, 11]: < 220 nM; IC50 [3, 12]: 876 nM; IC50 [3, 13]: 484 nM; IC50 [3, 14]: 317 nM |
